Test system: participants with SSc-RP
Assay: Scleroderma Health Assessment Questionnaire (SHAQ): disability indices and visual analog scales
Type: in vivo, human
Conditions: Part A, sensitivity analysis
Description: The standard, validated, patient reported outcome measures tool for SSc patients, the Scleroderma Health Assessment Questionnaire (SHAQ), will be used to assess the participant qualify of life. Details are attached in the Appendix. The participant quality of life will be scored, and a disability index calculated for each questionnaire completed by the patient at Screening and each in-clinic visit. The absolute change in participant quality of life from baseline to the end of each dosing period will be calculated similar to frequency data as before.
The SHAQ includes a Raynaud's VAS, which will be reported at screening and each in-clinic visit. The absolute change in Raynaud-VAS, assessed by the participants response to the SHAQ question ‘In the past 7 days, how much have your Raynaud's interfered with your daily activities?’ at baseline and the end of each dosing period will be calculated similar to frequency data as before.
The SHAQ is used to calculate a Disability Index to assess the participant qualify of life. The eight categories assessed by the Disability Index are 1) dressing and grooming, 2) arising, 3) eating, 4) walking, 5) hygiene, 6) reach, 7) grip, and 8) common daily activities. For each of these categories, patients report the amount of difficulty they have in performing two or three specific activities.
There are four possible responses for the Disability Index questions: • Without any difficulty=0 • With some difficulty=1 • With much difficulty=2 • Unable to do=3. • The highest score reported by the patient for any component question of the eight categories determines the score for that category. • If a component question is left blank or the response is too ambiguous to assign a score, then the score for that category is determined by the remaining completed question(s). • If all component questions are blank or if more than one answer is given, then follow up with the respondent is required. • If the respondent's mark is between the response columns, then move it to the closest one. If it's directly between the two, move it to the higher one.
Each of the disability items on the SHAQ has a companion aids/devices variable that is used to record what type(s) of assistance, if any, the participant uses for his/her usual activities. These variables (see below) are coded as follows: • 0=No assistance is needed. • 1=A special device is used by the patient in his/her usual activities. • 2=The patient usually needs help from another person. • 3=The patient usually needs BOTH a special device AND help from another person.
The scoring variables and scoring rules permit the computation of two disability indices, the Standard Disability Index and the Alternative Disability Index.
This question results in a new set of category scores that are computed by adjusting the score for each category, if necessary, based on the patient's use of an aid or device or assistance for that category. If either devices and/or help from another person are checked for a category, the score is set to “2”, unless the score is already “3” (i.e., scores of “0” or “1” are increased to “2”). For example, if the highest score for the dressing category is “1”, and the patient says they use a device for dressing, the computed category score would be “2”. The sum of the computed categories scores is then calculated and divided by the number of categories answered. This gives a score in the 0 to 3 range.
The aid and device variables are not used to calculate the alternative disability index; it is calculated by adding the scores for each of the categories and dividing by the number of categories answered. This gives a score in the 0 to 3 range.
The standard, validated, patient reported outcome measures tool for SSc patients, the SHAQ, was collected at the time points specified in the study schedules (FIG. 2 and FIGS. 4A and 4B) to assess the participant's quality of life. The SHAQ included a Raynaud's VAS that will also be reported separately.

[1] = PP Population, pooled cilnidipine 10 mg and 20 mg arms (plus tadalafil 5 mg where labelled)
[2] = Pooled Cilnidipine 10 mg and Cilnidipine 10 mg + Tadalafil 5 mg (N = 9), Modified ITT

COCCOC(=O)C1=C(C)NC(C)=C(C(=O)OC/C=C/c2ccccc2)C1c1cccc([N+](=O)[O-])c1 (centres unmarked) [Cilnidipine, cilnidipine]
SHAQ Alternative Disability Index: Baseline, Mean [1]: 0.359 | SHAQ Alternative Disability Index: Baseline, Median [1]: 0.250 | SHAQ Alternative Disability Index: Change from Baseline (Day 12), Mean [1]: 0.031 | SHAQ Alternative Disability Index: Change from Baseline (Day 12), Median [1]: 0.000 | SHAQ Alternative Disability Index: In-Clinic Visit (Day 12), Mean [1]: 0.391 | SHAQ Alternative Disability Index: In-Clinic Visit (Day 12), Median [1]: 0.188 | SHAQ Alternative Disability Index: Percent Change from Baseline (Day 12), Mean [1]: 9.68% | SHAQ Alternative Disability Index: Percent Change from Baseline (Day 12), Median [1]: −11.11% | SHAQ Standard Disability Index: Baseline, Mean [2]: 0.597 | SHAQ Standard Disability Index: Baseline, Median [2]: 0.500 | SHAQ Standard Disability Index: Change from Baseline, Mean [2]: −0.021 | SHAQ Standard Disability Index: Change from Baseline, Median [2]: 0.000 | SHAQ Standard Disability Index: Day 12, Mean [2]: 0.576 | SHAQ Standard Disability Index: Day 12, Median [2]: 0.375 | SHAQ Standard Disability Index: Percent Change from Baseline, Mean [2]: 7.50% | SHAQ Standard Disability Index: Percent Change from Baseline, Median [2]: 0.00% | SHAQ VAS Breathing Problems: Baseline, Mean [2]: 1.511 | SHAQ VAS Breathing Problems: Baseline, Median [2]: 0.800 | SHAQ VAS Breathing Problems: Change from Baseline, Mean [2]: −0.175 | SHAQ VAS Breathing Problems: Change from Baseline, Median [2]: 0.000 | SHAQ VAS Breathing Problems: Day 12, Mean [2]: 1.375 | SHAQ VAS Breathing Problems: Day 12, Median [2]: 0.000 | SHAQ VAS Breathing Problems: Percent Change from Baseline, Mean [2]: −26.05% | SHAQ VAS Breathing Problems: Percent Change from Baseline, Median [2]: −21.33% | SHAQ VAS Finger Ulcers: Baseline, Mean [2]: 0.656 | SHAQ VAS Finger Ulcers: Baseline, Median [2]: 0.200 | SHAQ VAS Finger Ulcers: Change from Baseline, Mean [2]: −0.267 | SHAQ VAS Finger Ulcers: Change from Baseline, Median [2]: −0.100 | SHAQ VAS Finger Ulcers: Day 12, Mean [2]: 0.389 | SHAQ VAS Finger Ulcers: Day 12, Median [2]: 0.000 | SHAQ VAS Finger Ulcers: Percent Change from Baseline, Mean [2]: −46.06% | SHAQ VAS Finger Ulcers: Percent Change from Baseline, Median [2]: −31.94% | SHAQ VAS Intestinal Problems: Baseline, Mean [2]: 2.444 | SHAQ VAS Intestinal Problems: Baseline, Median [2]: 1.100 | SHAQ VAS Intestinal Problems: Change from Baseline, Mean [2]: −1.228 | SHAQ VAS Intestinal Problems: Change from Baseline, Median [2]: −0.250 | SHAQ VAS Intestinal Problems: Day 12, Mean [2]: 1.217 | SHAQ VAS Intestinal Problems: Day 12, Median [2]: 0.700 | SHAQ VAS Intestinal Problems: Percent Change from Baseline, Mean [2]: −27.93% | SHAQ VAS Intestinal Problems: Percent Change from Baseline, Median [2]: −54.13% | SHAQ VAS Overall Disease Severity: Baseline, Mean [2]: 3.044 | SHAQ VAS Overall Disease Severity: Baseline, Median [2]: 1.900 | SHAQ VAS Overall Disease Severity: Change from Baseline, Mean [2]: −0.606 | SHAQ VAS Overall Disease Severity: Change from Baseline, Median [2]: −0.700 | SHAQ VAS Overall Disease Severity: Day 12, Mean [2]: 2.439 | SHAQ VAS Overall Disease Severity: Day 12, Median [2]: 1.900 | SHAQ VAS Overall Disease Severity: Percent Change from Baseline, Mean [2]: −24.68% | SHAQ VAS Overall Disease Severity: Percent Change from Baseline, Median [2]: −30.93% | SHAQ VAS Pain: Baseline, Mean [2]: 3.278 | SHAQ VAS Pain: Baseline, Median [2]: 3.100 | SHAQ VAS Pain: Change from Baseline, Mean [2]: −0.633 | SHAQ VAS Pain: Change from Baseline, Median [2]: −0.700 | SHAQ VAS Pain: Day 12, Mean [2]: 2.644 | SHAQ VAS Pain: Day 12, Median [2]: 2.900 | SHAQ VAS Pain: Percent Change from Baseline, Mean [2]: −20.07% | SHAQ VAS Pain: Percent Change from Baseline, Median [2]: −21.87% | SHAQ VAS Raynaud's: Baseline, Mean [2]: 2.733 | SHAQ VAS Raynaud's: Baseline, Median [2]: 1.400 | SHAQ VAS Raynaud's: Change from Baseline, Mean [2]: −0.414 | SHAQ VAS Raynaud's: Change from Baseline, Median [2]: −0.100 | SHAQ VAS Raynaud's: Day 12, Mean [2]: 2.319 | SHAQ VAS Raynaud's: Day 12, Median [2]: 2.600
